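Cells were grown in 96-well plates and exposed to each compound for 48 hours at five concentrations; endpoints were interpolated linearly between bracketing concentrations, or set to the highest concentration if not reached. Here, GI50 denotes the concentration required for 50% inhibition of growth.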 The source made the active and inactive calls. No stated cut-off is given here; in the data, active = GI50 up to about 1.1 µM and inactive = higher.
Assays:
Test in all cases: DTP human tumour cell line panel, 48 h
RPMI-8226 = tested on: RPMI-8226
SF-268 = tested on: SF-268
LOX IMVI = tested on: LOX IMVI
SK-MEL-5 = tested on: SK-MEL-5
SK-MEL-2 = tested on: SK-MEL-2
K562 = tested on: K562
U-251 = tested on: U-251
SR = tested on: SR
HL-60 = tested on: HL-60
UO-31 = tested on: UO-31
Malme-3M = tested on: Malme-3M
OVCAR-4 = tested on: OVCAR-4
M14 = tested on: M14
ACHN = tested on: ACHN
HOP-62 = tested on: HOP-62
CAKI-1 = tested on: CAKI-1
A498 = tested on: A498
HOP-92 = tested on: HOP-92

Compound | GI50 (RPMI-8226) | GI50 (SF-268) | GI50 (LOX IMVI) | GI50 (SK-MEL-5) | GI50 (SK-MEL-2) | GI50 (K562) | GI50 (U-251) | GI50 (SR) | GI50 (HL-60) | GI50 (UO-31) | GI50 (Malme-3M) | GI50 (OVCAR-4) | GI50 (M14) | GI50 (ACHN) | GI50 (HOP-62) | GI50 (CAKI-1) | GI50 (A498) | GI50 (HOP-92)
CCN(CC)C(=S)N/N=C(\C)c1ccccc1O | 18.5 µM (inactive) | 17.9 µM (inactive) | 15.5 µM (inactive) | 10.7 µM (inactive) | 19 µM (inactive) | 0.0568 µM (active) | 16.9 µM (inactive) | 8.13 µM (inactive) | 22.6 µM (inactive) | 14.3 µM (inactive) | 26.4 µM (inactive) | > 100 µM (inactive) | 17.5 µM (inactive) | 14.5 µM (inactive) | 34.6 µM (inactive) | 18.4 µM (inactive) | 20.5 µM (inactive) | –
COC(=O)C(=O)C(C#N)c1ccc(Cl)c(Cl)c1 (stereo not drawn) | > 100 µM (inactive) | > 100 µM (inactive) | > 100 µM (inactive) | > 100 µM (inactive) | > 100 µM (inactive) | > 100 µM (inactive) | > 100 µM (inactive) | > 100 µM (inactive) | > 100 µM (inactive) | > 100 µM (inactive) | > 100 µM (inactive) | – | > 100 µM (inactive) | > 100 µM (inactive) | – | > 100 µM (inactive) | – | > 100 µM (inactive)
NC(CCCCN/C=C1/N=C(c2ccccc2)OC1=O)C(=O)O (stereo not drawn) | > 100 µM (inactive) | > 100 µM (inactive) | > 100 µM (inactive) | > 100 µM (inactive) | > 100 µM (inactive) | 53.6 µM (inactive) | > 100 µM (inactive) | > 100 µM (inactive) | > 100 µM (inactive) | > 100 µM (inactive) | > 100 µM (inactive) | > 100 µM (inactive) | > 100 µM (inactive) | > 100 µM (inactive) | > 100 µM (inactive) | – | > 100 µM (inactive) | > 100 µM (inactive)
O=c1c2ccccc2c(=O)n2n1-c1cccc(c1)CSSCc1cccc-2c1 | > 10 µM (inactive) | > 10 µM (inactive) | > 100 µM (inactive) | > 10 µM (inactive) | > 10 µM (inactive) | > 10 µM (inactive) | 92 µM (inactive) | > 10 µM (inactive) | – | > 10 µM (inactive) | > 10 µM (inactive) | > 10 µM (inactive) | > 10 µM (inactive) | > 10 µM (inactive) | > 10 µM (inactive) | > 10 µM (inactive) | > 10 µM (inactive) | 5.9 µM (inactive)
O=C(O)C1=C(C(=O)Nc2ccccc2)C2C=CC1C2 (stereo not drawn) | > 100 µM (inactive) | > 100 µM (inactive) | > 100 µM (inactive) | > 100 µM (inactive) | – | > 100 µM (inactive) | > 100 µM (inactive) | > 100 µM (inactive) | > 100 µM (inactive) | > 100 µM (inactive) | > 100 µM (inactive) | > 100 µM (inactive) | > 100 µM (inactive) | > 100 µM (inactive) | > 100 µM (inactive) | – | > 100 µM (inactive) | > 100 µM (inactive)
O=C1C(c2ccccc2)=C(c2ccccc2)C(c2ccc(Cc3ccc(C4=C(c5ccccc5)C(=O)C(c5ccccc5)=C4c4ccccc4)cc3)cc2)=C1c1ccccc1 | > 100 µM (inactive) | > 100 µM (inactive) | > 100 µM (inactive) | > 100 µM (inactive) | > 100 µM (inactive) | > 100 µM (inactive) | > 100 µM (inactive) | > 100 µM (inactive) | > 100 µM (inactive) | > 100 µM (inactive) | 74.1 µM (inactive) | > 100 µM (inactive) | – | – | > 100 µM (inactive) | > 100 µM (inactive) | > 100 µM (inactive) | > 100 µM (inactive)

Reference: ChEMBL document CHEMBL1201862, “PubChem BioAssay data set” (2004)
